According to the supplement of paper PMC10307832:

What was measured:
Test in all cases: relative viability (nuclei count vs DMSO), 5 days (fraction); higher = more cells survive
Idelalisib + AZD7762 = compound: CC[C@H](Nc1ncnc2[nH]cnc12)c1nc2cccc(F)c2c(=O)n1-c1ccccc1 [Idelalisib] + NC(=O)Nc1cc(-c2cccc(F)c2)sc1C(=O)N[C@H]1CCCNC1 [AZD7762] (partner 0.2 µM)
In short: (§1)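 Five library-drug doses in √10 steps were combined with a fixed anchor-drug dose, or a single drug was given alone, by pin tool to lung cancer cell lines in 1536-well plates the day after seeding. Nuclei were stained and counted after 5 days. Relative viability is the nuclei count in treated wells over that in vehicle wells, taken as the median of duplicate plates.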

Idelalisib + Bortezomib = compound: CC[C@H](Nc1ncnc2[nH]cnc12)c1nc2cccc(F)c2c(=O)n1-c1ccccc1 [Idelalisib] + CC(C)C[C@H](NC(=O)[C@H](Cc1ccccc1)NC(=O)c1cnccn1)B(O)O [Bortezomib] (partner 0.002 µM)
In short: as §1

Pemetrexed + Olaparib = compound: Nc1nc2[nH]cc(CCc3ccc(C(=O)N[C@@H](CCC(=O)O)C(=O)O)cc3)c2c(=O)[nH]1 [Pemetrexed] + O=C(c1cc(Cc2n[nH]c(=O)c3ccccc23)ccc1F)N1CCN(C(=O)C2CC2)CC1 [Olaparib] (partner 8 µM)
In short: as §1

Pemetrexed + Pictilisib = compound: Nc1nc2[nH]cc(CCc3ccc(C(=O)N[C@@H](CCC(=O)O)C(=O)O)cc3)c2c(=O)[nH]1 [Pemetrexed] + CS(=O)(=O)N1CCN(Cc2cc3nc(-c4cccc5[nH]ncc45)nc(N4CCOCC4)c3s2)CC1 [Pictilisib] (partner 1 µM)
In short: as §1

Cell Line	relative viability (Idelalisib + AZD7762; first compound 0.04 µM)	relative viability (Idelalisib + AZD7762; first compound 0.1265 µM)	relative viability (Idelalisib + AZD7762; first compound 0.4 µM)	relative viability (Idelalisib + AZD7762; first compound 1.265 µM)	relative viability (Idelalisib + AZD7762; first compound 4 µM)	relative viability (Idelalisib + Bortezomib; first compound 0.04 µM)	relative viability (Idelalisib + Bortezomib; first compound 0.1265 µM)	relative viability (Idelalisib + Bortezomib; first compound 0.4 µM)	relative viability (Idelalisib + Bortezomib; first compound 1.265 µM)	relative viability (Idelalisib + Bortezomib; first compound 4 µM)	relative viability (Pemetrexed + Olaparib; first compound 0.002 µM)	relative viability (Pemetrexed + Olaparib; first compound 0.006325 µM)	relative viability (Pemetrexed + Olaparib; first compound 0.02 µM)	relative viability (Pemetrexed + Olaparib; first compound 0.06325 µM)	relative viability (Pemetrexed + Olaparib; first compound 0.2 µM)	relative viability (Pemetrexed + Pictilisib; first compound 0.002 µM)	relative viability (Pemetrexed + Pictilisib; first compound 0.006325 µM)	relative viability (Pemetrexed + Pictilisib; first compound 0.02 µM)	relative viability (Pemetrexed + Pictilisib; first compound 0.06325 µM)	relative viability (Pemetrexed + Pictilisib; first compound 0.2 µM)
NCI-H596	1.02	1.11	1.24	0.853	0.912	1	1.04	1	1.03	0.802	0.747	0.73	0.761	0.668	0.514	0.399	0.348	0.436	0.348	0.344
201T	0.712	0.587	0.523	0.377	0.583	1.1	1.07	1.1	1.13	1.08	0.791	0.85	0.841	0.878	0.839	0.625	0.698	0.715	0.632	0.5
HCC-15	1.35	0.909	1.25	1.16	1.21	0.998	1.11	0.899	1.1	1.02	0.644	0.724	0.804	0.601	0.353	0.629	0.777	0.766	0.544	0.238
